Source: patent publication US20020092037A1, “Use of membrane supports in plant tissue culture processes” (priority 2000, published 2002)

How the values were obtained:
[1] = test system: P. taeda embryogenic cell lines; assay: Embryo development and germination with abscisic acid applied in a liquid phase under polyester membranes; format: cell-based, Pinus taeda
Experimental: Loblolly pine embryogenic cell cultures were initiated, proliferated, cryopreserved, retrieved, further proliferated on gelled maintenance medium, and placed into liquid suspension for plating on embryo development medium MSG1 as described in Examples 3-4 above. Three replicate plates of each line were prepared for each of the following treatments:
Treatment B: the cells were plated onto polyester support membranes laid onto 1 ml liquid embryo development medium MSG1 containing PEG but lacking gelling agent and activated charcoal, pipetted over gelled embryo development medium MSG1
Treatment C: the cells were plated onto polyester support membranes laid onto 1 ml liquid embryo development medium MSG1 containing PEG but lacking gelling agent and activated charcoal, pipetted over gelled embryo development medium MSG1 lacking abscisic acid.
Embryos were developed, harvested and germinated as described in Example 4 above. The results of the counts of high quality cotyledonary stage embryos, and the germination tests with these embryos, are shown in Table 20 below.
In another experiment, an attempt had been made to decrease the osmotic potential of the liquid phase in order to facilitate filter sterilization.

[2] = test system: P. taeda embryogenic cell lines; assay: as above; format: cell-based, Pinus taeda; remark: listed apart in the source
[3] = test system: unknown fungus on Eucalyptus camaldulensis leaf explants; assay: Decontamination of Eucalyptus leaf explants of fungus; format: cell-based
From the text: Eucalyptus camaldulensis leaves were explanted from seedlings for the production of callus, and then discovered to be contaminated with an unknown fungus. Contaminated explants were shaken together to obtain the same degree of contamination for all explants to be used in this decontamination example. Contamination of each explant with the fungus was verified by streaking the explant on a potato dextrose agar plate, and observing independent growth of the fungus on the potato dextrose agar.
Approximately half the Eucalyptus leaf explants were then treated to decontamination by washing and collection of the tissue using polyester support membranes after each wash, similar to the improved decontamination method described in Example 6, split among five treatments:
Following the washing of half the material according to the protocol described in […] in the treatments described in the paragraph above, using three washes of 30 minutes each, the washed and non-washed material was then divided over the same support membrane treatments A-F as described in Example 8, except that nested within each support membrane treatment was the prior washing or lack of washing treatment, and within each of these latter treatments, the five fungicidal treatments listed above were further nested, wherein the antifungal agents benomyl, miconazole, nystatin or thiophanate were added to the medium subtending the tissue and supports in place of cefotaxime. Finally, non-contaminated explants were submitted to all treatments to determine the effects of the treatments on plant regeneration in the absence of fungus. Five explants were plated for each treatment combination.
The explants were then cultured in a growth chamber set at 27±3° C. and under low light, and were transferred biweekly using the same support membranes but supplying fresh sterile liquid and solid medium.

[4] = test system: P. taeda embryogenic cell lines; assay: Embryo development over eradicants in liquid phase of biphasic development and maturation media, P. taeda; format: cell-based, Pinus taeda; settings: eradicant in liquid phase of development/maturation media, cefotaxime 500 mg/L, TIMENTIN 400 mg/L
From the text: Agrobacterium contamination has been reported as recurring sometimes after long periods of time. With many species, eradicants are incorporated in all culture media used after the initial infection, including selection media, proliferation media, media to induce the formation of organs or the development of somatic embryos, media to elongate or mature organs or embryos that are formed, and regeneration media. For pine embryogenic cells, incorporation of eradicants into the embryo development and maturation media has been difficult due to the high temperature of polymerization of the media resulting from the incorporation of a high level of polyethylene glycol. Therefore, loblolly and hybrid pine cell lines grown and maintained as described in Examples 3-4 above were placed on polyester support membranes over gelled MSG1 embryo development and maturation media as described in Example 4 above, except that some of the development and maturation media were overlaid with various eradication treatments under the polyester support membranes. The treatments consisted of either no liquid phase, or a liquid phase identical to the gelled phase (except that gelling agent and activated charcoal were omitted) and incorporating either cefotaxime or TIMENTIN® as an eradicant. Three replicate plates were generated from each of […] (two from each of two P. taeda families and one hybrid pine family) for each of the treatments, and assessed for the ability of the cultures to develop high quality harvestable stage 3 embryos. Dishes were incubated in a dark growth chamber at 23±2° C. The membrane supports were transferred to new petri dishes containing fresh medium every 3 weeks. At week 9, stage 3 embryos were counted and those deemed suitable for germination were harvested.

[5] = test system: Hybrid pine embryogenic cell lines; assay: Growth of pine embryogenic cells on polyester supports over biphasic media with eradicants, hybrid pine; format: cell-based; settings: liquid phase under polyester support, cefotaxime 500 mg/L, TIMENTIN 400 mg/L
[6] = test system: Hybrid pine embryogenic cell lines; assay: Embryo development over eradicants in liquid phase of biphasic development and maturation media, hybrid pine; format: cell-based; settings: eradicant in liquid phase of development/maturation media, cefotaxime 500 mg/L, TIMENTIN 400 mg/L
From the text: Agrobacterium contamination has been reported as recurring sometimes after long periods of time. With many species, eradicants are incorporated in all culture media used after the initial infection, including selection media, proliferation media, media to induce the formation of organs or the development of somatic embryos, media to elongate or mature organs or embryos that are formed, and regeneration media. For pine embryogenic cells, incorporation of eradicants into the embryo development and maturation media has been difficult due to the high temperature of polymerization of the media resulting from the incorporation of a high level of polyethylene glycol. […] Three replicate plates were generated from each of six embryogenic cell lines (two from each of two P. taeda families and one hybrid pine family) for each of the treatments, and assessed for the ability of the cultures to develop high quality harvestable stage 3 embryos. […] At week 9, stage 3 embryos were counted and those deemed suitable for germination were harvested.

[7] = test system: P. taeda embryogenic cell lines; assay: Growth of pine embryogenic cells on polyester supports over biphasic media with eradicants, P. taeda; format: cell-based, Pinus taeda; settings: liquid phase under polyester support, cefotaxime 500 mg/L, TIMENTIN 400 mg/L
From the text: (§1) Loblolly pine cell lines were used which had been grown and maintained as described in Examples 3-4 above, and purposely infected with bacteria as described in Example 6 above. Support membranes bearing plant tissue were then placed on gelled DCR2 maintenance media with various decontamination treatments. These treatments consisted of antibiotics (cefotaxime, carbenicillin, AUGMENTIN® or TIMENTIN®) as eradicants incorporated into the gelled DCR2 maintenance or selection media, the antibiotics incorporated into liquid DCR3 pipetted in a thin film over gelled DCR2 maintenance media lacking antibiotics, or the antibiotics incorporated into liquid DCR3 which was saturated into a filter paper laid on gelled DCR2 maintenance media lacking antibiotics. Support membranes bearing control cells were placed either on gelled DCR2 maintenance media, over liquid DCR3 pipetted in a thin film over gelled DCR2 maintenance media lacking antibiotics, or over a filter paper saturated with liquid DCR3 and laid on gelled DCR2 maintenance media lacking antibiotics. Decontamination and maintenance were continued for a period of approximately 12 weeks with transfer of the polyester support membranes, bearing the cells, every 14-21 days.

[8] = test system: Hybrid pine embryogenic cell lines; assay: Embryogenicity after biphasic maintenance treatments, hybrid pine; format: cell-based; settings: for % germination: embryos from cultures maintained over eradicant liquid phase; for Average Number Of Embryos Harvested Per Plate: eradicant in liquid phase during maintenance, cefotaxime 500 mg/L, TIMENTIN 400 mg/L
[9] = test system: P. taeda embryogenic cell lines; assay: Embryogenicity after biphasic maintenance treatments, P. taeda; format: cell-based, Pinus taeda; settings: for % germination: embryos from cultures maintained over eradicant liquid phase; for Average Number Of Embryos Harvested Per Plate: eradicant in liquid phase during maintenance, cefotaxime 500 mg/L, TIMENTIN 400 mg/L
From the text: as §1

[10] = P1, gelled phase lacking abscisic acid and liquid phase containing abscisic acid
[11] = P1, liquid phase with same abscisic acid content as gelled phase
[12] = P2, gelled phase lacking abscisic acid and liquid phase containing abscisic acid
[13] = P2, liquid phase with same abscisic acid content as gelled phase

CC1=CC(=O)CC(C)(C)[C@@]1(O)/C=C/C(C)=C\C(=O)O [Abscisic Acid, Abscisic acid]
Average Number Of High Quality Cotyledonary Embryos Per Plate [1, 10]: 30.3 ± 7.1
Percentage Of Resulting Embryos That Germinated [1, 10]: 52.5%
Average Number Of High Quality Cotyledonary Embryos Per Plate [1, 11]: 44.3 ± 21.1
Average Number Of High Quality Cotyledonary Embryos Per Plate [1, 12]: 48.7 ± 5.0
Percentage Of Resulting Embryos That Germinated [1, 12]: 57.5%
Average Number Of High Quality Cotyledonary Embryos Per Plate [1, 13]: 44.3 ± 4.9
Percentage Of Resulting Embryos That Germinated [1, 13]: 67.5%
decrease in embryos per plate ([1]; abscisic acid in liquid phase only, overall use of 5% of the amount): 30-60%
Average Number Of High Quality Cotyledonary Embryos Per Plate ([2]; L5, Liquid Phase containing ABA and PEG): 26.3 ± 45.6
Average Number Of High Quality Cotyledonary Embryos Per Plate ([2]; L5, Liquid Phase containing ABA but no PEG): 201.0 ± 44.5
Average Number Of High Quality Cotyledonary Embryos Per Plate ([2]; L9, Liquid Phase containing ABA and PEG): 64.0 ± 23.6
Average Number Of High Quality Cotyledonary Embryos Per Plate ([2]; L9, Liquid Phase containing ABA but no PEG): 97.0 ± 20.7
Average Number Of High Quality Cotyledonary Embryos Per Plate ([2]; L42, Liquid Phase containing ABA and PEG): 0
Average Number Of High Quality Cotyledonary Embryos Per Plate ([2]; L42, Liquid Phase containing ABA but no PEG): 0
Percentage Of Resulting Embryos That Germinated [2, 11]: 55.0%

CCCCNC(=O)n1c(NC(=O)OC)nc2ccccc21 [benomyl, Benomyl]
phenolic release into the medium from plant tissue ([3]; also from successfully decontaminated plant tissue): elicited considerable phenolic release into the medium
decontamination ([3]; in the washing (100 mg/L) and incorporated into the medium below the polyester supports): largely ineffective in decontamination

CO/N=C(\C(=O)N[C@@H]1C(=O)N2C(C(=O)O)=C(COC(C)=O)CS[C@H]12)c1csc(N)n1 [cefotaxime]
Number of Harvestable Cotyledonary Stage Embryos Developed ([4]; P1): 208.0 ± 94.8
Number of Harvestable Cotyledonary Stage Embryos Developed ([4]; P2): 269.0 ± 23.3
Number of Harvestable Cotyledonary Stage Embryos Developed ([4]; P3): 25.0 ± 17.7
Number of Harvestable Cotyledonary Stage Embryos Developed ([4]; P4): 18.0 ± 1.0
Average growth over a one-month period (two transfers) ([5]; H1): 4.53 + 0.28
Average growth over a one-month period (two transfers) ([5]; H2): 8.76 + 0.63
Number of Harvestable Cotyledonary Stage Embryos Developed ([6]; H1): 200.0 ± 51.2
Number of Harvestable Cotyledonary Stage Embryos Developed ([6]; H2): 210.0 ± 67.1
Average growth over a one-month period (two transfers) ([7]; P1): 7.20 + 0.28
Average growth over a one-month period (two transfers) ([7]; P2): 1.93 + 0.24
Average growth over a one-month period (two transfers) ([7]; P3): 6.75 + 0.25
Average growth over a one-month period (two transfers) ([7]; P4): 8.97 + 0.19
% germination ([8]; H1): (96%)
Average Number Of Embryos Harvested Per Plate ([8]; H1): 152.0 ± 40.8
% germination ([8]; H2): (88%)
Average Number Of Embryos Harvested Per Plate ([8]; H2): 77.0 ± 10.4
% germination ([9]; P1): (10%)
Average Number Of Embryos Harvested Per Plate ([9]; P1): 87.0 ± 37.5
% germination ([9]; P2): (66%)
Average Number Of Embryos Harvested Per Plate ([9]; P2): 81.7 ± 44.5
% germination ([9]; P3): (21%)
Average Number Of Embryos Harvested Per Plate ([9]; P3): 14.3 ± 4.2
% germination ([9]; P4): (36%)
Average Number Of Embryos Harvested Per Plate ([9]; P4): 34.0 ± 16.1

Clc1ccc(COC(Cn2ccnc2)c2ccc(Cl)cc2Cl)c(Cl)c1 (stereo not shown) [miconazole, Miconazole]
contaminated explants in which decontamination did not succeed ([3]; contaminated Eucalyptus explants): 7.5%
decontamination rate ([3]; contaminated Eucalyptus explants, 50 mg/L in wash medium): 92.5%
